In PubChem BioAssay AID248 (DTP/NCI, 2004):
Inconclusive results and toxic doses are left out.

Tested on: L1210 leukemia ip in BDF1 mice, survival T/C
Assay: NCI In Vivo Anticancer Drug Screen. Data for tumor model L1210 Leukemia (intraperitoneal) in B6D2F1 (BDF1) mice
Conditions: endpoint: mean survival time, higher = longer survival
Outline: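 In this screen, tumor-bearing mice given compound are compared to those given vehicle, and their survival values are reported as a treated-to-control quotient.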

[1] = dose: 100.0 mg/kg/injection, schedule: Q01DX001 (ip), vehicle: saline
[2] = dose: 200.0 mg/kg/injection, schedule: Q01DX001 (ip), vehicle: saline
[3] = dose: 400.0 mg/kg/injection, schedule: Q01DX001 (ip), vehicle: saline
[4] = dose: 100.0 mg/kg/injection, schedule: Q04DX003 (ip), vehicle: saline with Tween-80
[5] = dose: 200.0 mg/kg/injection, schedule: Q04DX003 (ip), vehicle: saline with Tween-80
[6] = dose: 400.0 mg/kg/injection, schedule: Q04DX003 (ip), vehicle: saline with Tween-80
[7] = dose: 100.0 mg/kg/injection, schedule: Q04DX002 (ip), vehicle: saline
[8] = dose: 200.0 mg/kg/injection, schedule: Q01DX009 (ip), vehicle: saline
[9] = dose: 200.0 mg/kg/injection, schedule: Q04DX002 (ip), vehicle: saline
[10] = dose: 400.0 mg/kg/injection, schedule: Q04DX002 (ip), vehicle: saline
[11] = dose: 100.0 mg/kg/injection, schedule: Q04DX002 (ip), vehicle: Klucel (hydroxypropylcellulose) (HPC)

CS(=O)(=O)OC[C@@H](O)[C@@H](O)COS(C)(=O)=O
T/C (dose: 100.0 mg/kg/injection, schedule: Q01DX009 (ip), vehicle: saline sonified): 101 % of control
T/C (dose: 200.0 mg/kg/injection, schedule: Q01DX009 (ip), vehicle: saline sonified): 98 % of control
T/C (dose: 400.0 mg/kg/injection, schedule: Q01DX009 (ip), vehicle: saline sonified): 103 % of control

CC(C)=CC(=O)OC1C2C(CC(C)C3C(O)CC(=O)C13C)OC(=O)C2C (stereo not given)
T/C [1]: 107 % of control
T/C [2]: 100 % of control
T/C [3]: 97 % of control

O=C(COc1ccccc1)NCCO
T/C (dose: 100.0 mg/kg/injection, schedule: Q01DX009 (ip), vehicle: Klucel (hydroxypropylcellulose) (HPC)): 110 % of control
T/C (dose: 100.0 mg/kg/injection, schedule: Q04DX003 (ip), vehicle: Klucel (hydroxypropylcellulose) (HPC)): 100 % of control
T/C (dose: 200.0 mg/kg/injection, schedule: Q01DX009 (ip), vehicle: Klucel (hydroxypropylcellulose) (HPC)): 103 % of control
T/C (dose: 200.0 mg/kg/injection, schedule: Q04DX003 (ip), vehicle: Klucel (hydroxypropylcellulose) (HPC)): 97 % of control
T/C (dose: 400.0 mg/kg/injection, schedule: Q01DX009 (ip), vehicle: Klucel (hydroxypropylcellulose) (HPC)): 111 % of control
T/C (dose: 400.0 mg/kg/injection, schedule: Q04DX003 (ip), vehicle: Klucel (hydroxypropylcellulose) (HPC)): 102 % of control

CCCCCCCCCCCCCCCCOc1ccc(S(=O)(=O)Nc2cc(C(=O)OC)cc(C(=O)OC)c2)cc1N
T/C [4]: 97 % of control
T/C [5]: 90 % of control
T/C [6]: 90 % of control

O=C1NCCN1
T/C (dose: 100.0 mg/kg/injection, schedule: Q01DX009 (ip), vehicle: saline): 101 % of control
T/C [7]: 103 % of control
T/C (dose: 100.0 mg/kg/injection, schedule: Q04DX003 (ip), vehicle: saline): 104 % of control
T/C [8]: 106 % of control
T/C [9]: 107 % of control
T/C (dose: 200.0 mg/kg/injection, schedule: Q04DX003 (ip), vehicle: saline): 101 % of control
T/C (dose: 400.0 mg/kg/injection, schedule: Q01DX009 (ip), vehicle: saline): 106 % of control
T/C [10]: 107 % of control
T/C (dose: 400.0 mg/kg/injection, schedule: Q04DX003 (ip), vehicle: saline): 95 % of control

CN(Cc1ccccc1)c1ccccc1
T/C (dose: 50.0 mg/kg/injection, schedule: Q01DX001 (ip), vehicle: saline): 97 % of control
T/C [1]: 97 % of control
T/C [2]: 97 % of control
T/C [3]: 97 % of control

Cc1ccc(S(=O)(=O)OCC23CC4C5CC2C3(COS(=O)(=O)c2ccc(C)cc2)CC54)cc1
T/C (dose: 75.0 mg/kg/injection, schedule: Q01DX009 (ip), vehicle: Klucel (hydroxypropylcellulose) (HPC)): 95 % of control
T/C (dose: 150.0 mg/kg/injection, schedule: Q01DX009 (ip), vehicle: Klucel (hydroxypropylcellulose) (HPC)): 98 % of control
T/C (dose: 300.0 mg/kg/injection, schedule: Q01DX009 (ip), vehicle: Klucel (hydroxypropylcellulose) (HPC)): 93 % of control

CN1CCN(C2CCCCc3ccccc32)CC1 (stereo not given)
T/C [4]: 95 % of control

CS(=O)(=O)OCCN(CCOS(C)(=O)=O)c1ccc(N=O)cc1
T/C (dose: 0.08 mg/kg/injection, schedule: Q01DX Z (ip), vehicle: carboxymethylcellulose (CMC)): 115 % of control
T/C (dose: 0.08 mg/kg/injection, schedule: Q01DX Z (ip), vehicle: saline): 117 % of control
T/C (dose: 0.16 mg/kg/injection, schedule: Q01DX Z (ip), vehicle: carboxymethylcellulose (CMC)): 123 % of control
T/C (dose: 0.16 mg/kg/injection, schedule: Q01DX Z (ip), vehicle: saline): 122 % of control
T/C (dose: 0.63 mg/kg/injection, schedule: Q01DX Z (ip), vehicle: saline): 120 % of control
T/C (dose: 1.25 mg/kg/injection, schedule: Q01DX Z (ip), vehicle: saline): 110 % of control
T/C (dose: 1.28 mg/kg/injection, schedule: Q01DX Z (ip), vehicle: carboxymethylcellulose (CMC)): 103 % of control
T/C (dose: 2.0 mg/kg/injection, schedule: Q01DX001 (ip), vehicle: saline): 120 % of control
T/C (dose: 4.0 mg/kg/injection, schedule: Q01DX001 (ip), vehicle: saline): 121 % of control

CCCCCCCCOC(=O)CC
T/C [7]: 111 % of control
T/C [9]: 107 % of control
T/C [10]: 100 % of control

O=C1NN=C2CCCCC12 (stereo not given)
T/C (dose: 100.0 mg/kg/injection, schedule: Q04DX003 (ip), vehicle: other): 107 % of control
T/C (dose: 200.0 mg/kg/injection, schedule: Q04DX003 (ip), vehicle: other): 97 % of control
T/C (dose: 400.0 mg/kg/injection, schedule: Q04DX003 (ip), vehicle: other): 102 % of control

CCCCCCCCCCCCCCCCCCNC(=O)Nc1ccc([N+](=O)[O-])cc1Br
T/C [11]: 97 % of control
T/C (dose: 200.0 mg/kg/injection, schedule: Q04DX002 (ip), vehicle: Klucel (hydroxypropylcellulose) (HPC)): 97 % of control
T/C (dose: 400.0 mg/kg/injection, schedule: Q04DX002 (ip), vehicle: Klucel (hydroxypropylcellulose) (HPC)): 90 % of control

CCCCN(C)/N=N\c1[nH]ncc1C(N)=O
T/C (dose: 8.5 mg/kg/injection, schedule: Q01DX009 (ip), vehicle: saline with Tween-80): 119 % of control
T/C (dose: 13.0 mg/kg/injection, schedule: Q01DX009 (ip), vehicle: saline with Tween-80): 104 % of control
T/C (dose: 16.25 mg/kg/injection, schedule: Q01DX009 (ip), vehicle: saline with Tween-80): 115 % of control
T/C (dose: 20.0 mg/kg/injection, schedule: Q01DX009 (ip), vehicle: saline with Tween-80): 115 % of control
T/C (dose: 30.5 mg/kg/injection, schedule: Q04DX003 (ip), vehicle: saline with Tween-80): 100 % of control
T/C (dose: 44.0 mg/kg/injection, schedule: Q01DX009 (ip), vehicle: other): 165 % of control
T/C (dose: 61.0 mg/kg/injection, schedule: Q04DX003 (ip), vehicle: saline with Tween-80): 108 % of control
T/C (dose: 65.0 mg/kg/injection, schedule: Q01DX009 (ip), vehicle: saline with Tween-80): 157 % of control
T/C (dose: 66.0 mg/kg/injection, schedule: Q01DX009 (ip), vehicle: other): 184 % of control
T/C (dose: 77.25 mg/kg/injection, schedule: Q01DX001 (ip), vehicle: saline with Tween-80): 106 % of control
T/C (dose: 122.0 mg/kg/injection, schedule: Q04DX003 (ip), vehicle: saline with Tween-80): 119 % of control
T/C (dose: 150.0 mg/kg/injection, schedule: Q01DX009 (ip), vehicle: other): 114 % of control
T/C (dose: 154.5 mg/kg/injection, schedule: Q01DX001 (ip), vehicle: saline with Tween-80): 117 % of control
T/C (dose: 309.0 mg/kg/injection, schedule: Q01DX001 (ip), vehicle: saline with Tween-80): 114 % of control

CCc1c(Nc2ccccc2Cl)[nH]c(N)nc1=S
T/C (dose: 100.0 mg/kg/injection, schedule: Q01DX Z (ip), vehicle: methylcellulose (MC)): 97 % of control
T/C (dose: 200.0 mg/kg/injection, schedule: Q01DX Z (ip), vehicle: methylcellulose (MC)): 97 % of control

COc1cc(Cn2cccc2/C=C(\C#N)C(N)=O)cc(OC)c1
T/C (dose: 25.0 mg/kg/injection, schedule: Q04DX002 (ip), vehicle: Klucel (hydroxypropylcellulose) (HPC)): 94 % of control
T/C (dose: 50.0 mg/kg/injection, schedule: Q04DX002 (ip), vehicle: Klucel (hydroxypropylcellulose) (HPC)): 97 % of control
T/C [11]: 105 % of control

O=C(Nc1ccc(C2=NCCN2)cc1)c1ccc(-c2ccc(C(=O)Nc3ccc(C4=NCCN4)cc3)cc2)cc1
T/C (dose: 111.0 mg/kg/injection, schedule: Q01DX Z (ip), vehicle: carboxymethylcellulose (CMC)): 105 % of control
T/C (dose: 166.0 mg/kg/injection, schedule: Q01DX Z (ip), vehicle: carboxymethylcellulose (CMC)): 101 % of control
T/C (dose: 250.0 mg/kg/injection, schedule: Q01DX Z (ip), vehicle: carboxymethylcellulose (CMC)): 106 % of control
T/C (dose: 375.0 mg/kg/injection, schedule: Q01DX Z (ip), vehicle: carboxymethylcellulose (CMC)): 109 % of control

O=C1c2cccc3c2C2(O)c4c1cccc4C(=O)c1cccc(c12)C3=O
T/C (dose: 100.0 mg/kg/injection, schedule: Q01DX009 (ip), vehicle: saline with Tween-80): 101 % of control
T/C [4]: 96 % of control
T/C (dose: 132.0 mg/kg/injection, schedule: Q01DX009 (ip), vehicle: saline): 101 % of control
T/C [8]: 101 % of control
T/C [5]: 100 % of control
T/C (dose: 300.0 mg/kg/injection, schedule: Q01DX009 (ip), vehicle: saline): 95 % of control
T/C [6]: 102 % of control
